Data taken from US10111435B2, “Herbicidal compositions containing N-(1,3,4-oxadiazol-2-yl)-aryl carboxylic acid amides” (BAYER CROPSCIENCE AKTIENGESELLSCHAFT, priority 2013, dated 2018).

Key:
Assay type in all cases: in vivo
Avena fatua (AVEFA) = experiment: greenhouse post-emergence herbicidal efficacy against AVEFA
Method: (§1) All trials whose results are shown were conducted in a greenhouse by the methodology specified below. The effect of the inventive herbicidal compositions was examined on the following harmful plants 14 and 21 days after application:
(§2) Echinochloa crus-galli (ECHCG), Eleusine indica (ELEIN), Setaria viridis (SETVI), Amaranthus retroflexus (AMARE), Chenopodium album (CHEAL), Kochia scoparia (KCHSC), Solanum nigrum (SOLNI), Avena fatua (AVEFA), Bromus sterilis (BROST), Lolium multiflorum (LOLMU), Phalaris minor (PHAMI), Poa annua (POAAN), Galium aparine (GALAP), Matricaria inodora (MATIN) and Polygonum convolvulus (POLCO).
(§3) The harmful plant seeds were sown in pots (diameter 8 cm) with sandy loam soil and germinated under optimal conditions. The inventive herbicidal compositions or the active ingredients alone were applied post-emergence to the planted pots with a spray volume of 300 L/ha. The trial was conducted in a greenhouse under optimum growth conditions. The herbicidal effects were assessed visually by comparison of untreated and treated plants. The percentages mean: 0%=no effects, 100%=the plants die off completely).
(§4) The abbreviations mean: • a.i.=active ingredient • E^C=expected value according to Colby (E^C=A+B−A×B/100) • Diff: =difference (%) of measured value from expected value (%) (measured value minus expected value)
(§5) Assessment: • measured value E is greater than E^C:->synergism (+ diff.) • measured value E equals E^C:->additive effect • measured value E is smaller than E^C:->antagonism(− diff.)

Bromus sterilis (BROST) = experiment: greenhouse post-emergence herbicidal efficacy against BROST
Method: as §1, §2, §3, §4, §5

[1] = tested on: Lolium multiflorum (LOLMU); experiment: greenhouse post-emergence herbicidal efficacy against LOLMU
Method: as §1, §2, §3, §4, §5

Phalaris minor (PHAMI) = experiment: greenhouse post-emergence herbicidal efficacy against PHAMI
Method: as §1, §2, §3, §4, §5

Poa annua (POAAN) = experiment: greenhouse post-emergence herbicidal efficacy against POAAN
Method: as §1, §2, §3, §4, §5

Galium aparine (GALAP) = experiment: greenhouse post-emergence herbicidal efficacy against GALAP
Method: as §1, §2, §3, §4, §5

[2] = tested on: Matricaria inodora (MATIN); experiment: greenhouse post-emergence herbicidal efficacy against MATIN
Method: as §1, §2, §3, §4, §5

[3] = tested on: Polygonum convolvulus (POLCO); experiment: greenhouse post-emergence herbicidal efficacy against POLCO
Method: as §1, §2, §3, §4, §5

[4] = tested on: Echinochloa crus-galli (ECHCG); experiment: greenhouse post-emergence herbicidal efficacy against ECHCG
Method: as §1, §2
as §3, with “completely). The percentages are used to calculate interactions between individual treatments and combination treatments according to S. R. Colby, Weeds 15, pages 20 to 22 (1967).” for “completely).”
as §4, §5

Eleusine indica (ELEIN) = experiment: greenhouse post-emergence herbicidal efficacy against ELEIN; details: 4 g of a.i./ha
Method: as §1, §2
as §3, with “completely). The percentages are used to calculate interactions between individual treatments and combination treatments according to S. R. Colby, Weeds 15, pages 20 to 22 (1967).” for “completely).”
as §4, §5

Setaria viridis (SETVI) = experiment: greenhouse post-emergence herbicidal efficacy against SETVI; details: 21 days after application
Method: as §1, §2
as §3, with “completely). The percentages are used to calculate interactions between individual treatments and combination treatments according to S. R. Colby, Weeds 15, pages 20 to 22 (1967).” for “completely).”
as §4, §5

[5] = tested on: Chenopodium album (CHEAL); experiment: greenhouse post-emergence herbicidal efficacy against CHEAL; details: 21 days after application; 1 g of a.i./ha
Method: as §1, §2
as §3, with “completely). The percentages are used to calculate interactions between individual treatments and combination treatments according to S. R. Colby, Weeds 15, pages 20 to 22 (1967).” for “completely).”
as §4, §5

Kochia scoparia (KCHSC) = experiment: greenhouse post-emergence herbicidal efficacy against KCHSC; details: 4 g of a.i./ha
Method: as §1, §2
as §3, with “completely). The percentages are used to calculate interactions between individual treatments and combination treatments according to S. R. Colby, Weeds 15, pages 20 to 22 (1967).” for “completely).”
as §4, §5

[6] = 14 days after application, 10 g of a.i./ha
[7] = 21 days after application, g of a.i./ha: A1-13 2.5, mesosulfuron-methyl 10
[8] = 21 days after application, g of a.i./ha: A1-13 10, mesosulfuron-methyl 10
[9] = 21 days after application, g of a.i./ha: A1-13 2.5, mesosulfuron-methyl 2.5
[10] = 14 days after application, 2.5 g of a.i./ha
[11] = 14 days after application, g of a.i./ha: A1-57 12.5, aclonifen 200
[12] = 21 days after application, g of a.i./ha: A1-57 12.5, aclonifen 800
[13] = 14 days after application, g of a.i./ha: A1-57 12.5, aclonifen 800
[14] = 14 days after application, g of a.i./ha: A1-57 50, aclonifen 800
[15] = 21 days after application, g of a.i./ha: A1-57 50, aclonifen 800
[16] = 14 days after application, g of a.i./ha: A1-57 50, aclonifen 200
[17] = 21 days after application, g of a.i./ha: A1-57 12.5, aclonifen 200
[18] = 14 days after application, 5 g of a.i./ha
[19] = 14 days after application, 20 g of a.i./ha
[20] = 21 days after application, g of a.i./ha: A1-3 5, pinoxaden 20
[21] = 21 days after application, g of a.i./ha: A1-3 20, pinoxaden 5
[22] = 21 days after application, g of a.i./ha: A1-3 20, pinoxaden 20
[23] = 21 days after application, g of a.i./ha: A1-34 200, iodosulfuron-methyl-sodium 2
[24] = 14 days after application, 2 g of a.i./ha
[25] = 21 days after application, g of a.i./ha: A1-34 50, iodosulfuron-methyl-sodium 2
[26] = 14 days after application, 0.5 g of a.i./ha
[27] = 21 days after application, g of a.i./ha: A1-34 50, iodosulfuron-methyl-sodium 0.5

COC(=O)c1ccc(CNS(C)(=O)=O)cc1S(=O)(=O)NC(=O)Nc1nc(OC)cc(OC)n1 [mesosulfuron-methyl]
Efficacy (Avena fatua (AVEFA); [6]): 5% | Efficacy (Avena fatua (AVEFA); [7]): 0% | Efficacy (Avena fatua (AVEFA); [8]): 0% | Efficacy (Bromus sterilis (BROST); [9]): 0% | Efficacy (Bromus sterilis (BROST); [7]): 0% | Efficacy (Bromus sterilis (BROST); [8]): 0% | Efficacy [1, 8]: 15% | Efficacy (Phalaris minor (PHAMI); [10]): 0% | Efficacy (Phalaris minor (PHAMI); [6]): 5% | Efficacy (Phalaris minor (PHAMI); [9]): 0% | Efficacy (Phalaris minor (PHAMI); [7]): 5% | Efficacy (Phalaris minor (PHAMI); [8]): 5% | Efficacy (Poa annua (POAAN); [10]): 15% | Efficacy (Poa annua (POAAN); [6]): 40% | Efficacy (Poa annua (POAAN); [7]): 40% | Efficacy (Galium aparine (GALAP); [10]): 30% | Efficacy (Galium aparine (GALAP); [6]): 30% | Efficacy [2, 10]: 0% | Efficacy [2, 6]: 0% | Efficacy [3, 7]: 0% | Efficacy [3, 8]: 0%

Nc1c([N+](=O)[O-])ccc(Oc2ccccc2)c1Cl [aclonifen]
Efficacy (Avena fatua (AVEFA); 14 days after application, 200 g of a.i./ha): 0% | Efficacy (Avena fatua (AVEFA); 14 days after application, 800 g of a.i./ha): 0% | Efficacy (Avena fatua (AVEFA); [11]): 0% | Efficacy (Avena fatua (AVEFA); [12]): 0% | Efficacy (Bromus sterilis (BROST); [11]): 0% | Efficacy (Bromus sterilis (BROST); [13]): 0% | Efficacy (Bromus sterilis (BROST); [14]): 0% | Efficacy (Bromus sterilis (BROST); [12]): 0% | Efficacy (Bromus sterilis (BROST); [15]): 0% | Efficacy [1, 13]: 0% | Efficacy [1, 14]: 0% | Efficacy (Phalaris minor (PHAMI); [11]): 0% | Efficacy (Phalaris minor (PHAMI); [13]): 40% | Efficacy (Phalaris minor (PHAMI); [16]): 0% | Efficacy (Phalaris minor (PHAMI); [17]): 0% | Efficacy (Phalaris minor (PHAMI); [12]): 15% | Efficacy (Poa annua (POAAN); [11]): 0% | Efficacy (Poa annua (POAAN); [13]): 30% | Efficacy (Poa annua (POAAN); [16]): 0% | Efficacy (Poa annua (POAAN); [14]): 30% | Efficacy (Poa annua (POAAN); [12]): 10% | Efficacy (Poa annua (POAAN); 21 days after application, g of a.i./ha: A1-57 50, aclonifen 200): 0% | Efficacy (Poa annua (POAAN); [15]): 10% | Efficacy (Galium aparine (GALAP); [11]): 20% | Efficacy (Galium aparine (GALAP); [16]): 20% | Efficacy (Galium aparine (GALAP); [15]): 20% | Efficacy [2, 11]: 0% | Efficacy [2, 13]: 0% | Efficacy [2, 14]: 0% | Efficacy [2, 15]: 0% | Efficacy [3, 11]: 0% | Efficacy [3, 13]: 10% | Efficacy [3, 17]: 0%

COCc1nnc(NC(=O)c2ccc(C(F)(F)F)c(S(C)(=O)=O)c2C)o1 [A1-3]
Efficacy ([4]; 14 days after application, 1 g of a.i./ha): 0% | Efficacy ([4]; 14 days after application, 4 g of a.i./ha): 40% | Efficacy ([4]; 21 days after application, 4 g of a.i./ha): 10% | Efficacy ([4]; 21 days after application, 1 g of a.i./ha): 0% | Efficacy (Eleusine indica (ELEIN); 14 days after application): 50% | Efficacy (Eleusine indica (ELEIN); 21 days after application): 20% | Efficacy (Setaria viridis (SETVI); 4 g of a.i./ha): 20% | Efficacy (Setaria viridis (SETVI); 1 g of a.i./ha): 10% | Efficacy [5]: 20% | Efficacy (Kochia scoparia (KCHSC); 14 days after application): 40% | Efficacy (Kochia scoparia (KCHSC); 21 days after application): 20% | Efficacy (Avena fatua (AVEFA); [18]): 0% | Efficacy (Avena fatua (AVEFA); [19]): 0% | Efficacy (Bromus sterilis (BROST); [18]): 0% | Efficacy (Bromus sterilis (BROST); [19]): 5% | Efficacy [1, 18]: 0% | Efficacy [1, 20]: 0% | Efficacy [1, 21]: 5% | Efficacy (Phalaris minor (PHAMI); [18]): 0% | Efficacy (Phalaris minor (PHAMI); [19]): 20% | Efficacy (Phalaris minor (PHAMI); [21]): 5% | Efficacy (Phalaris minor (PHAMI); [22]): 5% | Efficacy (Poa annua (POAAN); [18]): 0% | Efficacy (Poa annua (POAAN); [19]): 5% | Efficacy (Poa annua (POAAN); [20]): 0% | Efficacy (Poa annua (POAAN); [22]): 3% | Efficacy (Galium aparine (GALAP); [18]): 40% | Efficacy (Galium aparine (GALAP); [20]): 5% | Efficacy (Galium aparine (GALAP); [21]): 5% | Efficacy (Galium aparine (GALAP); [22]): 5% | Efficacy [2, 18]: 30% | Efficacy [3, 18]: 0% | Efficacy [3, 19]: 10% | Efficacy [3, 21]: 5% | Efficacy [3, 22]: 5%

COC(=O)c1ccc(I)cc1S(=O)(=O)[N-]C(=O)Nc1nc(C)nc(OC)n1.[Na+] [iodosulfuron-methyl-sodium]
Efficacy (Avena fatua (AVEFA); [23]): 5% | Efficacy (Bromus sterilis (BROST); [24]): 15% | Efficacy (Bromus sterilis (BROST); [25]): 0% | Efficacy (Bromus sterilis (BROST); [23]): 0% | Efficacy [1, 26]: 0% | Efficacy [1, 24]: 30% | Efficacy (Phalaris minor (PHAMI); [26]): 10% | Efficacy (Poa annua (POAAN); [26]): 0% | Efficacy (Poa annua (POAAN); [24]): 20% | Efficacy (Galium aparine (GALAP); [26]): 30% | Efficacy (Galium aparine (GALAP); [27]): 0% | Efficacy (Galium aparine (GALAP); [23]): 25% | Efficacy [2, 27]: 70% | Efficacy [3, 26]: 15% | Efficacy [3, 24]: 30% | Efficacy [3, 27]: 0% | Efficacy [3, 25]: 0%
